The structures appear in SMILES notation.

The ED50 is the midpoint of the dose-response relation.

The subject of one series is rats. The experiment in a line: Anoxic seizure induced by gallamine triiodoethylate (antianoxic properties). Type of series: in vivo, rats (OFA). The following applies: 2 millimols/kg. The source says: The injection of a sufficient dose of a synthetic curariform substance such as gallamine triiodoethylate provokes in the rat paralysis of the diaphragm. The animal then dies by asphyxia.
Male rats of the OFA strain and weighing about 250 g. were first anesthetized with ether in order to enable tracheotomy to be performed and cortical electrodes to be inserted. Each rat was then maintained under conditions of artificial respiration by means of an appropriate apparatus and a paralysing dose of gallamine triiodoethylate was administered by intraperitoneal route to eliminate spontaneous breathing. The electrocorticogram, the electrocardiogram and the rectal temperature were registered. After a period of 30 minutes during which stabilization of the registrations was obtained the animal was treated with 2 millimols/kg of an oily solution of tri-n-propylacetic acid or an aqueous solution of one of its alkali metal salts. The artificial respiratory apparatus was stopped 5 minutes after treatment and note was taken of the cardiac frequency every 10 seconds as well as of the period of time between the stopping of the apparatus and the appearance of the flat tracing on the electrocorticogram. This period of time represents the period of survival of the animal. The value of the cardiac frequency corresponding to moment of appearance of the flat tracing was calculated by extrapolation.
The same test was performed on control animals but without administration of a compound of the invention.

Series [1] deals with mice. The series is described as follows: Pentylenetetrazol-induced seizure (anticonvulsant action). It counts as in vivo, mice (OF 1). The following applies: Mus musculus, ip, i.p., 125 mg/kg pentylenetetrazol i.p. On the procedure:
The purpose of this test which is carried out on mice is to determine whether the compounds of the invention, when given preventively by intraperitoneal route, are capable at certain doses of protecting some of the animals against the epileptic seizure produced by an adequate and predetermined dose of pentylenetetrazol which would be 100% fatal in the absence of the compound. The test was carried out on batches of 10 male OF 1 mice weighing about 25 g.

Series [2] concerns mice. The experiment in a line: Maximum electroshock seizure (anticonvulsant action). It counts as in vivo, mice (OF 1). The following applies: for ED50: Mus musculus, ip, 0.25 h, i.p., 15 min after administration, protection of 50% against tonic seizures. The method, then:
This seizure is characterized in the mouse by extension of the back paws for 5 to 10 seconds. The extension is similar to that observed during the tonicoclonic seizures provoked by chemical convulsants such as pentylenetetrazol or strychnine.
The test was carried out on batches of 10 mice of the OF 1 strain weighing about 22 g. […] Fifteen minutes later, each animal received an electric shock of twice threshold intensity (about 60 volts).
This latter value is indicated by the symbol HD50 or hypnotic dose 50 and the efficacy index by the fraction: [formula]

For series [3], the system named is mice. The experiment in a line: Traction test (myorelaxant properties). Type of series: in vivo, mice (OF 1). On the procedure:
This test enables sense of balance as well as muscular tonus and strength to be evaulated.
The test is carried out on groups of 10 male mice of the OF 1 strain weighing about 25 g. It consists of suspending the mice by the front paws to a horizontally stretched wire. Note is first taken of the time required by a group of control animals to effect recovery i.e. to place at least one of their back paws on the wire.

Series [4] in a line: Rota rod test (neurotoxicity). It counts as in vivo. The following applies: mouse, ip, mice, intraperitoneal, 30 min after administration, read-out: NTD50 (neurotoxic dose 50) in the rota rod test. The method, then:
The test used was that known as the rota rod test (BOISSIER-Therapie 1958, XIII, pp. 1074-1118). This test aims at enabling the animals' ability to coordinate their movements to be evaluated. It is carried out on batches of 10 mice each weighing about 25 g. The compound to be tested is administered by intraperitoneal route to the animals of each batch so that each batch receives a higher dose than that given to the preceding batch. Thirty minutes after administration, the mice are placed for two minutes on a wooden roller of 4.8 cm diameter which turns at the rate of 4 revolutions per minute. The roller has a rough surface to prevent the animals from slipping.
By this means, the neurotoxic dose 50 (NTD 50) can be determined, i.e. the dose of the compound with which one half of the animals can no longer stay on the roller during the period of time fixed as the reference period.
In order to obtain an activity index figure 30 minutes after administration the rota rod test described above was also performed using for comparison a known myorelaxant, namely mephenesin.
In general terms: In the rotarod test animals must keep their balance on a rotating rod.

For the molecule `CCCC(CCC)(CCC)C(=O)O` [Tri-n-propylacetic acid, tri-n-propylacetic acid], the “Increase of period of survival versus controls” value with rats was determined as 19%. In the series on rats (controls 74.3 ± 2.3), the Period of survival was found to be 87.9 ± 3.7 s. For the same molecule, in the series on rats (controls 150, calculated by extrapolation), the “Cardiac frequency when the flat tracing appears” value is given as 109. Further, the ED50 was 87 mg/kg in the series on mice [1] (0.125 h, 7 min. 30 sec after administration); 72 mg/kg with mice [1] (0.25 h, 15 min. after administration); 124 mg/kg with mice [1] (0.5 h, 30 min. after administration); 145 mg/kg with mice [2].

As for `Cc1ccccc1OCC(O)CO` (stereo not drawn) [Mephenesin, reference compound], the ED50 in the series on mice [3] (Mus musculus, ip, 0.5 h, i.p., 30 min. after administration, read-out: ED50, loss of traction reflex) came out at 250 mg/kg. For the same molecule, the “Activity index: NTD50/ED50” value with mice [3] (rota rod NTD50 / traction ED50, 30 minutes after administration) was found to be 0.4. Besides, the TD50 at 0.5 h in series [4] turned out to be 100 mg/kg.

As to `CCC1(c2ccccc2)C(=O)NC(=O)NC1=O` [Phenobarbital, reference compound], the ED50 in the series on mice [2] worked out at 78 mg/kg. Besides, in the series with mice [2] (electroshock ED50 versus hypnotic dose 50), the “Efficacy index (HD50 compared with ED50)” value is on record as 1.3.

The record behind these values is patent US3958011A, “Compositions of tri-n-propylacetic acid and salts thereof and treatment of neurological disorders with such compositions” (priority 1972, dated 1976).
